Test results taken from patent US20250059188A1, “ARYLSULPHONAMIDE COMPOUNDS” (Anaxis Pharma Pty Ltd, priority 2021, published 2025).

Tests used:
[1] = test system: U937 cells; assay: Counter screen: U937 cell viability without TSQ cocktail (off-target effect); set-up: species or system human; details: Homo sapiens, U-937, compound without TSQ cocktail, read-out: Off-target effect (IC50 cell-based assay)
Method in brief: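 Off-target viability counter screen: compounds titrated 36 μM down 1:3 over 10 points (0.3% DMSO) on 20,000 U937 cells/well, no TNF/Smac mimetic/Q-VD-OPh added, 48 h incubation. ATP-based CellTiter-Glo luminescence, four-parameter logistic IC50.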

[2] = test system: Immortalised Mouse Dermal Fibroblasts (MDFs); assay: Inhibition of TSI induced necroptosis in mouse dermal fibroblasts (CellTitre-Glo); details: Mus musculus, Fibroblast, 3 h, MDF cells, TSI cocktail (TNF, Smac mimetic, IDN-6556), read-out: Inhibition of TSI-induced necroptosis (IC50 cell-based assay) in MDF
Method in brief: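 Immortalised MDFs (2200 cells/well, DMEM + 7.4% FBS) pretreated 30 min with compound (36 μM top, 1:3, 10 points, 0.3% DMSO), then 3 h with TNF 100 ng/ml, Smac mimetic 500 nM and IDN-6556 10 μM at 37 °C. Viability by CellTiter-Glo luminescence; IC50 from 4-parameter logistic fit.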

Row | SMILES | IC50 [1] | IC50 [2]
1 | C[C@H](Oc1cc(-c2nn(C)c3c(-c4cnn(C5CCN(C)C(C)(C)C5)c4)cnc(N)c23)ccc1NS(=O)(=O)C(F)F)c1ccc(F)cc1 (single isomer, unassigned) [Compound 113] | > 10 µM | 0.1 to 1 µM
2 | C[C@H](Oc1cc(-c2nn(C)c3c(-c4cnn(C5CCN(C)C(C)(C)C5)c4)cnc(N)c23)ccc1NS(=O)(=O)C(F)F)c1ccc(F)cc1 (single isomer, unassigned) [Compound 154, N-(4-(4-amino-1-methyl-7-(1-((R*)-1,2,2-trimethylpiperidin-4-yl)-1H-pyrazol-4-yl)-1H-pyrazolo[4,3-c]pyridin-3-yl)-2-((S)-1-(4-fluorophenyl)ethoxy)phenyl)-1,1-difluoromethanesulfonamide] | > 10 µM | < 0.1 µM
3 | C[C@H](Oc1cc(-c2nn(C)c3c(-c4cnn(C5CCN(C)C6(CC6)C5)c4)cnc(N)c23)ccc1NS(=O)(=O)C(F)F)c1ccc(F)cc1 (single isomer, unassigned) [Compound 170, N-(4-(4-amino-1-methyl-7-(1-((S*)-4-methyl-4-azaspiro[2.5]octan-7-yl)-1H-pyrazol-4-yl)-1H-pyrazolo[4,3-c]pyridin-3-yl)-2-((S)-1-(4-fluorophenyl)ethoxy)phenyl)-1,1-difluoromethanesulfonamide] | > 10 µM | < 0.1 µM
4 | Cn1nc(-c2ccc(NS(=O)(=O)C(F)F)c(OCc3ccc(F)cc3)c2)c2c(N)ncc(-c3cnn(C4CCOCC4)c3)c21 [Compound 13, N-(4-(4-amino-1-methyl-7-(1-(tetrahydro-2H-pyran-4-yl)-1H-pyrazol-4-yl)-1H-pyrazolo[4,3-c]pyridin-3-yl)-2-((4-fluorobenzyl)oxy)phenyl)-1,1-difluoromethanesulfonamide] | > 10 µM | 1 to 10 µM
5 | C[C@H](Oc1cc(-c2nn(C)c3c(-c4cnn(C5CCOCC5)c4)cnc(N)c23)ccc1NS(=O)(=O)C(F)F)c1ccc(F)cc1 [Compound 19, (S)-N-(4-(4-amino-1-methyl-7-(1-(tetrahydro-2H-pyran-4-yl)-1H-pyrazol-4-yl)-1H-pyrazolo[4,3-c]pyridin-3-yl)-2-(1-(4-fluorophenyl)ethoxy)phenyl)-1,1-difluoromethanesulfonamide] | > 10 µM | 0.1 to 1 µM
6 | COCCn1cc(-c2cnc(N)c3c(-c4ccc(NS(=O)(=O)C(F)F)c(O[C@@H](C)c5ccc(F)cc5)c4)nn(C)c23)cn1 [Compound 29, (S)-N-(4-(4-amino-7-(1-(2-methoxyethyl)-1H-pyrazol-4-yl)-1-methyl-1H-pyrazolo[4,3-c]pyridin-3-yl)-2-(1-(4-fluorophenyl)ethoxy)phenyl)-1,1-difluoromethanesulfonamide] | > 10 µM | 1 to 10 µM
7 | C[C@H](Oc1cc(-c2nn(C)c3c(-c4cnn(C5CCCC5)c4)cnc(N)c23)ccc1NS(=O)(=O)C(F)F)c1ccc(F)cc1 [Compound 30, (S)-N-(4-(4-amino-7-(1-cyclopentyl-1H-pyrazol-4-yl)-1-methyl-1H-pyrazolo[4,3-c]pyridin-3-yl)-2-(1-(4-fluorophenyl)ethoxy)phenyl)-1,1-difluoromethanesulfonamide] | > 10 µM | 1 to 10 µM
8 | C[C@H](Oc1cc(-c2nn(C)c3c(-c4cnn(C5CCN(C)CC5)c4)cnc(N)c23)ccc1NS(=O)(=O)C(F)F)c1ccc(F)cc1 [Compound 46, (S)-N-(4-(4-amino-1-methyl-7-(1-(1-methylpiperidin-4-yl)-1H-pyrazol-4-yl)-1H-pyrazolo[4,3-c]pyridin-3-yl)-2-(1-(4-fluorophenyl)ethoxy)phenyl)-1,1-difluoromethanesulfonamide] | 1 to 10 µM | 0.1 to 1 µM
9 | C[C@H](Oc1cc(-c2nn(C)c3c(C#CC4CCNCC4)cnc(N)c23)ccc1NS(=O)(=O)C(F)F)c1ccc(F)cc1 [Compound 79, (S)—N-(4-(4-amino-1-methyl-7-(piperidin-4-ylethynyl)-1H-pyrazolo[4,3-c]pyridin-3-yl)-2-(1-(4-fluorophenyl)ethoxy)phenyl)-1,1-difluoromethanesulfonamide] | > 10 µM | 1 to 10 µM
10 | C[C@H](Oc1cc(-c2nn(C)c3c(C#CC4CCN(C)CC4)cnc(N)c23)ccc1NS(=O)(=O)C(F)F)c1ccc(F)cc1 [Compound 80, (S)—N-(4-(4-amino-1-methyl-7-((1-methylpiperidin-4-yl)ethynyl)-1H-pyrazolo[4,3-c]pyridin-3-yl)-2-(1-(4-fluorophenyl)ethoxy)phenyl)-1,1-difluoromethanesulfonamide] | > 10 µM | 0.1 to 1 µM
11 | CC(C)N(C)C(=O)C(C)n1cc(-c2cnc(N)c3c(-c4ccc(NS(=O)(=O)C(F)F)c(O[C@@H](C)c5ccc(F)cc5)c4)nn(C)c23)cn1 (stereo partly drawn) [Compound 81, 2-(4-(4-amino-3-(4-((difluoromethyl)sulfonamido)-3-((S)-1-(4-fluorophenyl)ethoxy)phenyl)-1-methyl-1H-pyrazolo[4,3-c]pyridin-7-yl)-1H-pyrazol-1-yl)-N-isopropyl-N-methylpropanamide] | > 10 µM | 1 to 10 µM
12 | C[C@H](Oc1cc(-c2nn(C)c3c(-c4cnn(C(C)(C)CO)c4)cnc(N)c23)ccc1NS(=O)(=O)C(F)F)c1ccc(F)cc1 [Compound 97, (S)-N-(4-(4-amino-7-(1-(1-hydroxy-2-methylpropan-2-yl)-1H-pyrazol-4-yl)-1-methyl-1H-pyrazolo[4,3-c]pyridin-3-yl)-2-(1-(4-fluorophenyl)ethoxy)phenyl)-1,1-difluoromethanesulfonamide] | > 10 µM | 1 to 10 µM
13 | C[C@H](Oc1cc(-c2nn(C)c3c(-c4cnn(C5(CC#N)COC5)c4)cnc(N)c23)ccc1NS(=O)(=O)C(F)F)c1ccc(F)cc1 [Compound 98, (S)-N-(4-(4-amino-7-(1-(3-(cyanomethyl)oxetan-3-yl)-1H-pyrazol-4-yl)-1-methyl-1H-pyrazolo[4,3-c]pyridin-3-yl)-2-(1-(4-fluorophenyl)ethoxy)phenyl)-1,1-difluoromethanesulfonamide] | > 10 µM | 1 to 10 µM
14 | C[C@H](Oc1cc(-c2nn(C)c3c(-c4cnn(C5CC6(C5)CN(C)C6)c4)cnc(N)c23)ccc1NS(=O)(=O)C(F)F)c1ccc(F)cc1 [Compound 99, (S)-N-(4-(4-amino-1-methyl-7-(1-(2-methyl-2-azaspiro[3.3]heptan-6-yl)-1H-pyrazol-4-yl)-1H-pyrazolo[4,3-c]pyridin-3-yl)-2-(1-(4-fluorophenyl)ethoxy)phenyl)-1,1-difluoromethanesulfonamide] | > 10 µM | 1 to 10 µM
15 | [2H]C([2H])([2H])N1CCC(n2cc(-c3cnc(N)c4c(-c5ccc(NS(=O)(=O)C(F)F)c(O[C@@H](C)c6ccc(F)cc6)c5)nn(C)c34)cn2)CC1 [Compound 103] | > 10 µM | 1 to 10 µM
16 | C[C@H](Oc1cc(-c2nn(C)c3c(-c4cnn(C5CCC(C)(C)N(C)C5)c4)cnc(N)c23)ccc1NS(=O)(=O)C(F)F)c1ccc(F)cc1 (stereo partly drawn) [Compound 104, N-(4-{4-amino-1-methyl-7-[1-(1,6,6-trimethylpiperidin-3-yl)-1H-pyrazol-4-yl]-1H-pyrazolo[4,3-c]pyridin-3-yl}-2-[(1 S)-1-(4-fluorophenyl)ethoxy]phenyl)-1,1-difluoromethanesulfonamide] | > 10 µM | 0.1 to 1 µM
17 | CC(=O)N1CCC(n2cc(-c3cnc(N)c4c(-c5ccc(NS(=O)(=O)C(F)F)c(O[C@@H](C)c6ccc(F)cc6)c5)nn(C)c34)cn2)CC1 [Compound 109, (S)—N-(4-(7-(1-(1-acetylpiperidin-4-yl)-1H-pyrazol-4-yl)-4-amino-1-methyl-1H-pyrazolo[4,3-c]pyridin-3-yl)-2-(1-(4-fluorophenyl)ethoxy)phenyl)-1,1-difluoromethanesulfonamide] | > 10 µM | 0.1 to 1 µM
18 | C[C@H](Oc1cc(-c2nn(C)c3c(-c4cnn(CC(F)(F)F)c4)cnc(N)c23)ccc1NS(=O)(=O)C(F)F)c1ccc(F)cc1 [Compound 116, (S)-N-(4-(4-amino-1-methyl-7-(1-(2,2,2-trifluoroethyl)-1H-pyrazol-4-yl)-1H-pyrazolo[4,3-c]pyridin-3-yl)-2-(1-(4-fluorophenyl)ethoxy)phenyl)-1,1-difluoromethanesulfonamide] | > 10 µM | 1 to 10 µM
19 | C[C@H](Oc1cc(-c2nn(C)c3c(-c4cnn(C5CCC(F)(F)C5)c4)cnc(N)c23)ccc1NS(=O)(=O)C(F)F)c1ccc(F)cc1 (stereo partly drawn) [Compound 120, N-(4-{4-amino-7-[1-(3,3-difluorocyclopentyl)-1H-pyrazol-4-yl]-1-methyl-1H-pyrazolo[4,3-c]pyridin-3-yl}-2-[(1S)-1-(4-fluorophenyl)ethoxy]phenyl)-1,1-difluoromethanesulfonamide] | > 10 µM | 1 to 10 µM
20 | C[C@@H](Oc1cc(-c2nn(C)c3c(-c4cnn(C5CCOCC5)c4)cnc(N)c23)ccc1NS(=O)(=O)C(F)F)c1ccc(F)cc1 [Compound 121, (R)-N-(4-(4-amino-1-methyl-7-(1-(tetrahydro-2H-pyran-4-yl)-1H-pyrazol-4-yl)-1H-pyrazolo[4,3-c]pyridin-3-yl)-2-(1-(4-fluorophenyl)ethoxy)phenyl)-1,1-difluoromethanesulfonamide] | > 10 µM | 1 to 10 µM
21 | C[C@H](Oc1cc(-c2nn(C)c3c(-c4cnn(C5CCOCC5)c4)cnc(N)c23)ccc1NS(=O)(=O)C(F)F)c1cccc(Cl)c1 [Compound 122, (S)-N-(4-(4-amino-1-methyl-7-(1-(tetrahydro-2H-pyran-4-yl)-1H-pyrazol-4-yl)-1H-pyrazolo[4,3-c]pyridin-3-yl)-2-(1-(3-chlorophenyl)ethoxy)phenyl)-1,1-difluoromethanesulfonamide] | > 10 µM | 1 to 10 µM
